“Also recorded” adds a separate entry of the source.
Tests used:
BWΔtolC strain = experiment: Growth inhibition in 2YT liquid medium (off-target activity); format: cell-based, E. coli; details: for growth inhibition: TolC-depleted BWΔtolC; for Off-target activity: antibacterial activity against BWΔtolC
Protocol: (§1) Bacteria were grown in 2YT broth supplemented, when required, with ampicillin or kanamycin at concentrations of 100 and 50 µg/ml, respectively. The BWΔtolC strain was obtained from the Keio collection. The BWΔbacAΔtolC and BWbacA-singleΔtolC were generated by P1 transduction of the ΔtolC::Kan^R cassette from BWΔtolC strain to BWΔbacA and DMEG9 recipient strains, respectively. The strains S. aureus RN4220 and S. pneumoniae R6 were used to evaluate the antibacterial activity of certain compounds. S. aureus was grown on BHI (Brain Heart Infusion) broth and S. pneumoniae was grown on Colombia broth supplemented with 5% horse blood.
(§2) For compounds displaying inhibitory activity on BacA catalysis, their antibacterial activity was tested on different E. coli strains by monitoring bacterial growth in the presence of compounds (125, 250 and 500 µM). One colony was cultured in 10 ml of 2YT liquid medium and incubated at 37℃ for 6 h. The absorbance of the culture at 600 nm (A600) was measured to prepare a bacterial suspension in 2YT liquid medium at 15.10^6 CFU/ml (A600 = 1 corresponds to 3.10^8 CFU/ml). The bacterial suspension (200-µl) was then grown on 96-well plates in the presence or not of compounds (5-µl), which was added from a stock solution prepared in DMSO. Negative controls were then performed by growing the cells without inhibitors in 2YT medium and in 2YT medium supplemented with 2.5% of DMSO. The plates were incubated at 37℃ overnight with A600 measurements every 10 min using a Tecan F200 PRO microplate reader (iControl software).

BacA = BacA (Escherichia coli, UniProt P60932); details: for IC50 / BacA RA (%): 50 µM C55-PP, 5 nM BacA; for IC50: average of at least three experiments; for BacA RA (%): residual activity in the presence of 100 µM compound, 10 min 37 °C
Protocol: C43(DE3) cells carrying pTrcBac30 plasmid were used for the expression of N-terminally His6-tagged BacA (His6-BacA) protein from E. coli. Cells were grown in 2YT-ampicillin at 37 °C and when the OD600 reached 0.9, the temperature of the culture was decreased to 22 °C and protein expression was induced by addition of 1 mM IPTG. Incubation was continued overnight at 22 °C and bacteria were harvested in the cold and washed in a buffer containing 20 mM Tris-HCl, pH 7.4, 0.4 M NaCl, 10% glycerol and 10 mM β-mercaptoethanol (buffer A). The cells were disrupted by three successive passages through a French press and the suspension was centrifuged at 200,000× g, 4 °C for 45 min. The pellet of membranes was washed with buffer A. The membranes were resuspended in buffer A supplemented by 2% DDM detergent. This mixture was incubated for 2 h at 4 °C under agitation before being centrifuged as described above. The supernatant containing solubilised membrane proteins was used for the purification of His6-BacA on Ni^2+-NTA-agarose. The supernatant was incubated overnight at 4 °C under agitation with 2 ml of Ni^2+-NTA-agarose polymer pre-equilibrated with buffer A supplemented with 10 mM imidazole and 0.2% DDM. The mixture was then transferred into a Poly-prep chromatography column (Biorad) and the polymer was washed with 50 ml of buffer A containing 0.2% DDM and successively 10 and 30 mM imidazole. The elution of BacA was then performed with buffer A containing 0.2% DDM and 400 mM imidazole. Fractions containing the BacA protein were subjected to an additional gel-filtration purification step on Superdex 200 (HiLoadTM 16/600 SuperdexTM 200) equilibrated in 0.1% DDM-containing buffer A. 1-ml fractions were collected and analysed by SDS-PAGE. Pure fractions were pooled and concentrated to 1 mg/ml (50000 MWCO concentrator, Vivaspin™ 20). […] PgpB was purified as previously described.
The C55-PP phosphatase activity of BacA was assessed by measuring the percentage of transformation of [^14C]C55-PP into [^14C]C55-P upon incubation with BacA by TLC analysis. The butanol from the [^14C]C55-PP solution was dried under vacuum so as to evaporate the organic solvent and to recover C55-PP as a lipidic film. […] The compounds (1 µL) were added to the reaction mixture at 100 µM final concentration (at the first instance) from a 2 mM stock solution prepared in DMSO. A blank experiment without compound, but with 1 µL DMSO, was performed in order to determine the 100 % of BacA activity to which all other experiments were compared. BacA (2 µL) was then added at a final concentration of 5 nM from a dilution solution prepared in the reaction buffer. The concentration of enzyme was fixed so that the consumption of substrate at the end of the incubation time in the control was less than 30%. The reaction mixture was incubated for 10 min at 37 °C and the catalysis was stopped by freezing in liquid nitrogen. The radiolabelled substrate (C55-PP) and product (C55-P) were separated by TLC on pre-coated plates of silica gel 60 (Merck) using propanol/ammonium hydroxide/water (6:3:1, v/v/v) as a mobile phase. The radioactive spots were located and quantified with a radioactivity scanner. […] Dose-response curves were plotted as BacA residual activity (RA) versus the logarithms of inhibitor concentration. […] Reported values are the average of at least three experiments. The C55-PP phosphatase activity of PgpB was measured as described for BacA.
The activity of BacA was then investigated by monitoring the initial velocity of [^14C]C55-PP dephosphorylation, as described in Material and methods section. […] The compounds were prepared as 2 mM DMSO stock solutions, resulting in a 5 % final concentration of DMSO in the reaction mixture.

[1] = tested on: BWbacA-singleΔtolC strain; experiment: Growth inhibition / MIC in 2YT liquid medium; format: cell-based, E. coli; details: for MIC: BWbacA-singleΔtolC strain; for class of antibacterial activity (Figure S2): BWΔtolC and BWbacA-singleΔtolC strains, 250 and 500 µM; for growth inhibition: TolC/PAP2-depleted BWbacA-singleΔtolC, 500 µM compound
Protocol: as §1, §2

[2] = tested on: DMEG9 strain, alias BWbacA-single; experiment: Growth inhibition in 2YT liquid medium; format: cell-based, E. coli; details: PAP2-depleted DMEG9; 500 µM compound
Protocol: as §2
(§3) Two compounds, 3 and 5, were assessed for antibacterial activity using the broth microdilution method against the E. coli BW25113 wild type strain. […] Considering the plurality of C55-PP phosphatases in E. coli, the inhibition of BacA may not induce growth inhibition as long as the PAP2 enzymes (PgpB, YbjG, and LpxT) are functional. Consequently, compounds 3 and 5 were tested against a BW25113 variant in which the PAP2 enzymes were depleted (DMEG9 strain, alias BWbacA-single). […]

[3] = tested on: BWbacA-singleΔtolC strain overexpressing an ectopic copy of the bacA gene on a plasmid; experiment: Growth inhibition upon bacA overexpression; format: cell-based, E. coli; details: bacA overexpressed in trans; 500 µM compound
Protocol: as §2
(§4) To further assess the specificity of compounds 3 and 5 with respect to BacA, they were tested against the strain depleted of both TolC and PAP2 but overexpressing an ectopic copy of the bacA gene on a plasmid.

[4] = tested on: E. coli BW25113 wild type strain; experiment: Growth inhibition in 2YT liquid medium; format: cell-based; details: 500 µM compound
Protocol: as §2, §3

[5] = tested on: BWbacA-singleΔtolC strain carrying the empty vector (pTRCH30); experiment: Growth inhibition, control strain carrying the empty vector; format: cell-based, E. coli; details: 500 µM compound
Protocol: as §2, §4

BWΔbacAΔtolC strain = experiment: Growth inhibition in 2YT liquid medium; format: cell-based, E. coli; details: BacA and TolC depleted; 500 µM compound
Protocol: as §1
For compounds displaying inhibitory activity on BacA catalysis, their antibacterial activity was tested on different E. coli strains by monitoring bacterial growth in the presence of compounds (125, 250 and 500 µM). One colony was cultured in 10 ml of 2YT liquid medium and incubated at 37℃ for 6 h. The absorbance of the culture at 600 nm (A600) was measured to prepare a bacterial suspension in 2YT liquid medium at 15.10^6 CFU/ml (A600 = 1 corresponds to 3.10^8 CFU/ml). […] The plates were incubated at 37℃ overnight with A600 measurements every 10 min using a Tecan F200 PRO microplate reader (iControl software). […]

S. pneumoniae R6 = experiment: Double-disc diffusion test with bacitracin; format: cell-based
Protocol: To evaluate the antibacterial activity of the compounds per se or in combination with bacitracin, against S. aureus RN4220 and S. pneumoniae R6 strains, disc diffusion method was used according to the CLSI guidelines. Bacterial suspensions equivalent to 10^8 CFU/ml were prepared in 5 ml BHI broth. A BHI-agar plate (for S. aureus) or Colombia-agar plate supplemented with 5% Horse Blood (for S. pneumoniae) were then flooded with a bacterial suspension for 1 min to allow the bacteria to sediment before removing the excess of medium. The commercial discs loaded with 130 µg of bacitracin (Biorad) was positioned on top of the bacterial lawn at distances of 10 mm (center to center) from another sterile and blank disc, which was then loaded with 7 µL of a compound solution (50 µg). The plates were incubated at 37 °C for 24 h and the diameter of the growth inhibition zone was measured and a photo of the plates was acquired using a ChemiDoc™ MP System.
Figure S3. Test of antibacterial activity of BacA inhibitors against S. aureus RN4220 (A) and S. pneumonia R6 (B) strains. Bacitracin (130 µg)- and compound (50 µg)-loaded discs were positioned at 10 mm of distance on top of a bacterial lawn. The plates were incubated overnight at 37 °C. These images are representative of three independent tests. […]

PgpB = target: T1, PgpB (Escherichia coli, UniProt P0A924); experiment: C55-PP phosphatase assay of PgpB; format: biochemical, E. coli; details: 100 µM compound; data not shown
T1 construct: made in house
Protocol: C43(DE3) cells carrying pTrcBac30 plasmid were used for the expression of N-terminally His6-tagged BacA (His6-BacA) protein from E. coli. Cells were grown in 2YT-ampicillin at 37 °C and when the OD600 reached 0.9, the temperature of the culture was decreased to 22 °C and protein expression was induced by addition of 1 mM IPTG. Incubation was continued overnight at 22 °C and bacteria were harvested in the cold and washed in a buffer containing 20 mM Tris-HCl, pH 7.4, 0.4 M NaCl, 10% glycerol and 10 mM β-mercaptoethanol (buffer A). The cells were disrupted by three successive passages through a French press and the suspension was centrifuged at 200,000× g, 4 °C for 45 min. The pellet of membranes was washed with buffer A. The membranes were resuspended in buffer A supplemented by 2% DDM detergent. […] Fractions containing the BacA protein were subjected to an additional gel-filtration purification step on Superdex 200 (HiLoadTM 16/600 SuperdexTM 200) equilibrated in 0.1% DDM-containing buffer A. 1-ml fractions were collected and analysed by SDS-PAGE. […]
The C55-PP phosphatase activity of BacA was assessed by measuring the percentage of transformation of [^14C]C55-PP into [^14C]C55-P upon incubation with BacA by TLC analysis. […] The radioactive spots were located and quantified with a radioactivity scanner. […] The C55-PP phosphatase activity of PgpB was measured as described for BacA.

Sequence of BacA (P60932 whole entry): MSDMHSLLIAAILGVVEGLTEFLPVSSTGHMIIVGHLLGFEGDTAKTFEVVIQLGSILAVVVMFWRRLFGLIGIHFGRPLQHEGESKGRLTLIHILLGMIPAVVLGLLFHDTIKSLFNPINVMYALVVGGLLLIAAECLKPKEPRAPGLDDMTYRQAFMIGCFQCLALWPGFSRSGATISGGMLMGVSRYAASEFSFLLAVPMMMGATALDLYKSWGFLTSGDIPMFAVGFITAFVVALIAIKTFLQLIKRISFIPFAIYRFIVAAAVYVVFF
T1 sequence (P0A924 whole entry): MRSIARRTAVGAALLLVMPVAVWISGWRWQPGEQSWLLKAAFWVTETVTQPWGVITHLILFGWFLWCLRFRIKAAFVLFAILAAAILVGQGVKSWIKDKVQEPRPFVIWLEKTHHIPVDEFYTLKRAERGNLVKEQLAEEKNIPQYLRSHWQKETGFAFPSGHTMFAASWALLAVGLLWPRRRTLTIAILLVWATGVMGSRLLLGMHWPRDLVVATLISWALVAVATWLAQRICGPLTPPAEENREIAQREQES

Compound	growth inhibition (BWΔtolC strain; 500 µM compound)	Off-target activity (BWΔtolC strain)	IC50 (BacA) [µM]	BacA RA (%) (BacA)	MIC [1] [µg/mL]	MIC ([1]; 125, 250 and 500 µM tested) [µM]	class of antibacterial activity (Figure S2) [1]	growth inhibition [1]	also measured
O=C(O)c1csc(S(=O)(=O)Nc2ccc3ccccc3c2)c1 [Compound 6]	moderate inhibition	Yes	151 ± 13	70 ± 18	83	250	antibacterial activity on both strains	total growth inhibition	growth inhibition (BWΔtolC strain; 250 µM compound): no effect
Cc1ccc(NS(=O)(=O)c2cc(C(=O)O)cs2)cc1C [Compound 2]	no effect	No	132 ± 22	66± 17	155	500	strong specificity towards BacA	total growth inhibition	nature of the inhibition (compound versus substrate competition kinetics) (BacA; 25 to 300 µM substrate, 200 µM compound): non-competitive inhibitors
O=C(O)c1csc(S(=O)(=O)Nc2ccc3[nH]c(=O)sc3c2)c1 [Compound 5]	did not lead to any growth inhibition; also recorded: no growth inhibition	No	338 ± 35	76 ± 13		> 500	without any antibacterial activity whatever the strain	no growth inhibition	growth inhibition [2]: no growth inhibition; growth inhibition upon bacA overexpression [3]: did not display any antibacterial activity; growth inhibition [4]: No growth inhibition; growth inhibition [5]: did not display any antibacterial activity; growth inhibition (BacA-independent activity) (BWΔbacAΔtolC strain): did not display any antibacterial activity; MIC ([1]; class symbol ND): ND (no growth inhibition detected up to 500 µM compound)
bacitracin [reference compound]									inhibition zone of bacitracin (S. pneumoniae R6; 130 µg bacitracin disc alone): 7.5 mm
O=C(O)c1csc(S(=O)(=O)Nc2ccc(SCc3cccnc3)cc2)c1 [Compound 1, 5-{p-[(3-pyridyl)methylthio]phenylaminosulfonyl}-3-thenoic acid]	no growth inhibition	No					without any antibacterial activity whatever the strain		MIC ([1]; Escherichia coli, 125, 250 and 500 µM tested): > 500 µM; MIC ([1]; Escherichia coli, class symbol ND): > 500 µM
O=C(O)c1csc(S(=O)(=O)Nc2ccc(N3CCCC3)c(F)c2)c1 [Compound 4]	moderate inhibition	Yes			92	250	antibacterial activity on both strains	total growth inhibition	growth inhibition (BWΔtolC strain; 250 µM compound): no effect; inhibition of PgpB (PgpB): not inhibited; antibacterial activity per se (inhibition zone around compound-loaded disc) (S. pneumoniae R6; 50 µg compound disc): no inhibition zone; inhibition zone of bacitracin in proximity of the compound (S. pneumoniae R6; 130 µg bacitracin disc, 50 µg compound disc at 10 mm): 10 mm
CC(C)Oc1ccc(NS(=O)(=O)c2cc(C(=O)O)cs2)cc1 [Compound 7]	no effect	No	366 ± 73	80 ±10	170	500	strong specificity towards BacA	total growth inhibition	

— article PMC9127117, “Towards discovery of inhibitors of the undecaprenyl-pyrophosphate phosphatase BacA by virtual high-throughput screening” (Computational and Structural Biotechnology Journal, 2022)
